Our source for the IC50 values is PubChem BioAssay AID1645866 (Buhrlage Lab, Dana-Farber Cancer Institute and Novartis …, 2021).

Molecules are shown by their SMILES. Calls of active or inactive are those of the source.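 The calls were made as follows: active = in confirmatory dose-response testing, peak deubiquitinase inhibition of 30% or more; inactive = the rest.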 Some results are limits rather than exact numbers.

Sequence of Ubiquitin carboxyl-terminal hydrolase 28 (Homo sapiens) (Q96RU2 whole entry, looked up): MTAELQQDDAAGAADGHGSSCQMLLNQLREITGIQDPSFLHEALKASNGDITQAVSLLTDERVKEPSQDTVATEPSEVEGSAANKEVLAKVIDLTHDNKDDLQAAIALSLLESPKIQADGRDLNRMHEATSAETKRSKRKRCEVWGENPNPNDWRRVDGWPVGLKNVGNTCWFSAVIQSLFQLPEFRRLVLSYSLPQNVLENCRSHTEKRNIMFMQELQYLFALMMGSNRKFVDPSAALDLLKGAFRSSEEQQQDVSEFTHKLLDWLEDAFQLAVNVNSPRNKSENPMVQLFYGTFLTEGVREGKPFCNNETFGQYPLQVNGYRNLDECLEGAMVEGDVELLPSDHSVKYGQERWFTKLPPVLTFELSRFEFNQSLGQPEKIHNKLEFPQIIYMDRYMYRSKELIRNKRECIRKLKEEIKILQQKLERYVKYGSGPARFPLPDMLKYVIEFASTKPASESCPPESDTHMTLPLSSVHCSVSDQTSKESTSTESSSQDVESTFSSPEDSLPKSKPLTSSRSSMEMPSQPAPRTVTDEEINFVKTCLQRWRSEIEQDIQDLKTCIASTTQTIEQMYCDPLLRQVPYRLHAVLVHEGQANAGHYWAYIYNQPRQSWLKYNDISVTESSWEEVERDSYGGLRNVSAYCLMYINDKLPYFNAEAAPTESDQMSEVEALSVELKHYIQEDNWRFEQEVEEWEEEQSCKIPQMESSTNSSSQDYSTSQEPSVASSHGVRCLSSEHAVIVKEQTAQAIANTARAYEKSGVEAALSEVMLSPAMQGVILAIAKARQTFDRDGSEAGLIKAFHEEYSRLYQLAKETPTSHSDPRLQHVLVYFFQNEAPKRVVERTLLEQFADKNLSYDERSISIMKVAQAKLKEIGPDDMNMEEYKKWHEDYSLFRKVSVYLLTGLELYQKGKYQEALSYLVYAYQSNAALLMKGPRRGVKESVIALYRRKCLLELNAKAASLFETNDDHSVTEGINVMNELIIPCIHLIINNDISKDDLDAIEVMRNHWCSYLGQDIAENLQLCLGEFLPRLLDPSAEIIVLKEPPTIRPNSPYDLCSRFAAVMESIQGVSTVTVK

This assay concerns the target Ubiquitin carboxyl-terminal hydrolase 28 (Homo sapiens) (UniProt Q96RU2). The experiment in a line: Ubiquitin-specific peptidase 28 DUB inhibitors, biochemical concentration-dependence assay, validation of primary screening hits (AID 1645866). Particulars: purified USP28, ubiquitin-rhodamine fluorescence, 30 min.
In the case of `COCCNC(=O)c1cc(-c2cn(-c3ccccn3)c(C)n2)n2ccccc12`, the IC50 (usually the concentration needed to halve the response being measured) is > 50 µM (inactive).
The figure for `Cc1cc(N2CCOCC2)nc2ccc(NC(=O)CCC(=O)Nc3ccc(F)cc3)cc12` is 19.7 µM; for `CC(=O)Nc1ccc(-n2cnc(C(=O)NC(C)c3ccccc3)c2)nc1` (stereo not drawn) it is 20.5 µM.
Next, `CCn1ccc2c(cc(C(=O)Nc3cccc(OC)c3)n2C)c1=O`: 2.83 µM; `COc1cc(NC(=O)COC(=O)Cn2cnc3ccccc32)cc(OC)c1`: 40 µM.
Take `Fc1cccc(-n2cc(-c3noc(-c4ccccn4)n3)nn2)c1`: the IC50 is 23.7 µM.
On to `Cc1ccccc1NC(=O)c1ccn(COc2ccc(Cl)cc2)n1`, for which the IC50 is 13.3 µM.
Next, `Cc1nc(-c2cccc(NC(=O)c3ccccc3Cl)c2)no1`: 16.6 µM; `COC(=O)c1sc2ccccc2c1NC(=O)c1ccc(Br)s1`: 15.8 µM.
Turning to `Cc1[nH]nc(NC(=O)C2COc3ccccc3O2)c1-c1ccccc1` (stereo not drawn), the IC50 was 15.1 µM.
Next, `Cc1ccc(Nc2nc(Nc3cccc(Cl)c3)nc3nccnc23)cc1`: > 50 µM (inactive); `Cc1cccc(NC(=O)Cn2cnc(-c3noc(-c4ccccc4)n3)c2)c1C`: 1.31 µM.
Next, `COc1cc(C2SCC(=O)Nc3c2c(-c2ccccc2)nn3-c2ccccc2)cc(OC)c1OC` (stereo not drawn): 3.37 µM.
The figure for `COc1ccc(CCC(=O)Nc2ccc3c(c2)Sc2ncccc2C(=O)N3C)cc1` is 41 µM; for `CC(=O)N1CCc2cc(S(=O)(=O)NC(Cc3ccccc3)C(=O)Nc3cccc(Cl)c3C)ccc21` (stereo not drawn) it is 9.5 µM.
As to `O=C(COc1cccc(C(=O)NCc2ccccc2)c1)Nc1ccc(Oc2ccccc2)cc1`, the IC50 is 27.9 µM.
The figure for `CC(C)C(=O)Nc1ccc(N2CCN(Cc3ccc(F)cc3)C2=O)nc1` is 19.3 µM; for `Cc1ccc2c(c1)[C@]1(C(=O)N2)[C@@H]2C(=O)N(c3cccc(C(F)(F)F)c3)C(=O)[C@@H]2C2CCCN21` (stereo partly drawn) it is > 50 µM (inactive).
Next, `COc1ccc(CC(NC(C)=O)C(=O)NC2CCN(c3c(Cc4ccccc4)c(C)nc4ncnn34)CC2)cc1OC` (stereo not drawn): > 50 µM (inactive); `Cc1ccccc1N1C(=O)/C(=C\c2cccn2C)c2ccccc2C1=O`: > 50 µM (inactive); `O=C(/C=C/c1ccco1)c1cccc([N+](=O)[O-])c1`: 21.9 µM.
Next, `Cc1cn[nH]c1C1COCCN1C(=O)c1ccc2ncccc2c1` (stereo not drawn): > 50 µM (inactive); `CCOc1ccc(NS(=O)(=O)c2ccc(NC(=O)Nc3ccccc3)cc2)cc1`: 16 µM; `CC1Cc2ccccc2N1C(=O)Cn1c(=O)cc(O)c2ccccc21` (stereo not drawn): 18.8 µM.
For `COc1ccc(OC)c(-n2c(SCC(=O)N3CCc4ccccc43)nnc2-c2cccc(S(=O)(=O)N(C)C)c2)c1`, the half-inhibitory concentration (IC50) was 8.44 µM.
Next, `COc1cc(NC(=O)c2cc(CN3CCOCC3)on2)cc(OC)c1`: 20.3 µM; `COc1ccc(C)cc1NC(=O)C1CC(=O)Nc2nc3ccccc3n21` (stereo not drawn): 24.4 µM; `COc1ccccc1-c1nc(-c2nnn(Cc3ccc(C)cc3)c2C)no1`: 5.47 µM.
As for `COc1ccc2c(c1)c(N1CCCC1=O)c(C(=O)NCc1cccc(OC)c1OC)n2C`, the IC50 is > 50 µM (inactive).
Next, `COc1ccc(NC(=O)CSc2oc(-c3ccc(C)cc3)nc2S(=O)(=O)c2ccc(Br)cc2)c(OC)c1`: > 50 µM (inactive).
As for `CCn1c(Cn2cccn2)nc2cc(NC(=O)c3ccc(F)cc3)ccc21`, the IC50 is 15.5 µM.
Consider `CS(=O)(=O)N1CCCc2cc(C(=O)Nc3ccc4c(c3)OCO4)ccc21`, for which the IC50 was 4.54 µM.
Next, `Cc1ccc(CNC(=O)CCCn2c(=O)c3sccc3n(CC(=O)OCc3ccccc3)c2=O)cc1`: 2.15 µM.
Next, `O=C1CC(C(=O)Nc2ccccc2F)n2nc(-c3ccccc3)cc2N1` (stereo not drawn): 21.9 µM.
The figure for `Cc1nn(C)c2c1[C@@H](c1ccc(F)c(Br)c1)[C@H](NC(=O)c1ccccc1)C(=O)N2` is 3.79 µM; for `Cc1ccc2nnc(-c3ccccc3)c(C(=O)N3CCN(c4ccccn4)CC3)c2c1` it is 35 µM; for `Cc1cc(C)c2c(-n3cccc3)c(C(=O)NCCc3ccc(S(N)(=O)=O)cc3)sc2n1` it is 2.55 µM.
As for `N#Cc1ccc(COC(=O)c2ccc3ccccc3n2)cc1`, the IC50 was 3.62 µM.
The figure for `COc1cccc(-c2nc3cnccn3c2NCc2ccc3c(c2)OCO3)c1` is > 50 µM (inactive); for `O=C(Cn1c(=O)n(Cc2ccc(F)cc2)c(=O)c2sccc21)Nc1cccc(Cl)c1` it is 11.4 µM.
`COc1ccccc1CNC(=O)c1ccccc1OCc1ccccc1Cl`: the IC50 was > 50 µM (inactive).
The figure for `CCc1ccccc1NC(=O)COc1ccccc1-c1nnc(-c2ccccc2)o1` is 23.5 µM.
The figure for `CCCCCCCc1cc(O)cc(O)c1` is 4.32 µM; for `O=C(Cn1nc2c3c4c(sc3ncn2c1=O)CCCCC4)Nc1ccc(Cl)cc1F` it is 1.83 µM; for `Cc1cccc(NC(=O)CN2C(=O)COc3cc(S(=O)(=O)N4CCCC4)ccc32)c1C` it is 21 µM.
The figure for `Cc1ccc(NC(=O)c2cnc3c(c2)c(=O)n(C)c(=O)n3C)cc1` is 2.07 µM; for `Cc1ccc(C(=O)CCC(=O)OCC(=O)c2ccc3[nH]c(=O)[nH]c3c2)cc1` it is 24.1 µM; for `O=C(NCc1ccc(-c2nc3cnccc3o2)cc1)c1ccccc1F` it is 15.3 µM.
On to `CC(C)N1C[C@@H]2C[C@H](NS(=O)(=O)c3cccc(C#N)c3)CN2Cc2ccccc21`, for which the IC50 was > 50 µM (inactive).
For `CC1CCCCN1CCCNC(=O)c1ccc(N2CCc3ccccc32)s1` (stereo not drawn), the IC50 was 10.6 µM.
The figure for `COc1ccc(CN2CCCC23CCCN(C(=O)CCc2cccnc2)C3)cc1F` (stereo not drawn) is 26.4 µM; for `COc1ccc(NC(=O)c2ccc(Nc3nnc(C)c4ccccc34)cc2)cc1` it is 22.5 µM.
Turning to `CNc1nc2c(c(=O)n1Cc1ccccc1)CN(C(=O)c1ccc(CN)cc1)CC2`, the IC50 was 48.4 µM.
Next, `COc1cccc2c1C(=O)c1ccc3c(c1C2=O)C(=O)CC(C)(O)C3` (stereo not drawn): > 50 µM (inactive); `COc1cc(NC(=O)Cn2nc(-c3ccc(F)cc3)ccc2=O)ccc1-n1cnnn1`: 1.98 µM; `CCc1ccc(C(C)NC(=O)C2CCN(c3ccc4nncn4n3)CC2)cc1` (stereo not drawn): 16.4 µM.
Next, `Cc1ccccc1NC(=O)Nc1ccccc1OCc1cc(=O)n2cccc(C)c2n1`: 1.04 µM.
The figure for `COc1ccc(NC(=O)CN2C(=O)c3ccccc3Sc3ccc(C(=O)N4CCCC4)cc32)c(OC)c1` is 18.9 µM.
`COc1ncccc1CN1CCn2c(Cn3cncn3)cnc2C1C` (stereo not drawn): the IC50 is > 50 µM (inactive).
The figure for `Cc1ccc(NC(=O)c2ccc3c(c2)N(S(C)(=O)=O)CC3)cc1` is 25.2 µM; for `COc1ccc2nc(SCC(=O)Nc3ccc(NC(C)=O)cc3)c(C)cc2c1` it is 9.45 µM; for `COc1ccc(CCNC(=O)CCCCn2c(=O)c3ccccc3n(Cc3cccc(Cl)c3)c2=O)cc1OC` it is 21.1 µM.
In the case of `O=c1[nH]c(C2CCN(S(=O)(=O)c3ccc(S(=O)(=O)NC4CCCCC4)cc3)CC2)nc2c1nnn2Cc1c(F)cccc1Cl`, the IC50 is 17 µM.
Next, `C=C(NC(=O)C(=C)NC(=O)c1csc(-c2ccc3c(n2)-c2csc(n2)-c2csc(n2)C(C(C)C2CO2)NC(=O)C(Cc2ccc(O)cc2)NC(=O)c2csc(n2)C(C(O)c2ccccc2)NC(=O)c2nc(sc2C)C(CC(N)=O)NC(=O)c2csc-3n2)n1)C(=O)O` (stereo not drawn): 24.9 µM; `O=C(COc1nsnc1N1CCOCC1)Nc1ccccc1F`: > 50 µM (inactive); `COCCCNC(=O)c1ccc(Cn2c(=O)c3ccccc3n(CC(=O)Nc3ccc(OC)cc3)c2=O)cc1`: 20.1 µM.
The figure for `C=C1CCC2[C@](C)(CCC[C@]2(C)C(=O)OC)[C@H]1CCc1ccoc1C[N+](C)(C)Cc1ccccc1` (stereo partly drawn) is 20.1 µM.
The figure for `Cc1ccc(CN2C(=O)c3cc4ccccc4n3CC2(C)C(=O)NCc2ccccc2)o1` (stereo not drawn) is 44.6 µM; for `COc1ccc(CCNC(=O)CCn2c(=O)c3ccccc3n(Cc3ccc(C)cc3)c2=O)cc1OC` it is 22 µM.
For the compound `O=C(Cn1cnc(-c2noc(-c3ccncc3)n2)c1)N1CCN(c2ccccc2F)CC1`, the IC50 is > 50 µM (inactive).
In the case of `O=c1c(NCCCN2CCCC2)nc2ccncc2n1Cc1ccccc1`, the IC50 is > 50 µM (inactive).
Turning to `CC(C)Oc1ccc(C(=O)Nc2cccc(S(=O)(=O)N3CCCC3)c2)cc1`, the IC50 was 10.7 µM.
On to `CNC(=O)C1CN(C(=O)c2ccc(OC)cc2)CC12CCCC2` (stereo not drawn), for which the IC50 was > 50 µM (inactive).
The figure for `O=C(OCc1cccc(Cl)c1)c1ccc2ccccc2n1` is 0.36 µM.
The figure for `COc1cccc(N2CCN(c3ccc4nnc(CCC(=O)N5CCc6ccccc6C5)n4n3)CC2)c1` is 22.8 µM; for `COc1cc2c(cc1OC)-c1cc(NCc3cc(OC)c(OC)c(OC)c3)nc(=O)n1CC2` it is > 50 µM (inactive); for `Fc1ccc(-c2noc(-c3nnc(NCc4cccnc4)c4ccccc34)n2)cc1` it is 2.97 µM.
Next, `Fc1ccccc1N1CCN(c2ncc3c(n2)CCN(Cc2ccccn2)C3)CC1`: 31 µM.
With `N#Cc1c(SCCO)nc(N2CCCC2)c2c1CCCC2`, the IC50 was 6.47 µM.
For `Cc1cccc(NC(=O)c2nc(N3CCSCC3)c3cnn(C)c3n2)c1`, the IC50 was > 50 µM (inactive).
The figure for `O=C(Nc1cc(F)c2nc(N3CCCC3)ccc2c1)c1ccco1` is > 50 µM (inactive); for `COc1ccc(NC(=O)C2[C@@H]3C(=O)N(C4CCCCC4)C(=O)[C@@H]3[C@H]3c4ccccc4C=CN23)cc1` (stereo partly drawn) it is 36.9 µM; for `COc1ccc(C(=O)Nc2n[nH]c(C)c2-c2cccc(C)c2)c(OC)c1` it is 10.3 µM.
Next, `O=C(Cn1c(=O)c2sccc2n(Cc2ccc([N+](=O)[O-])cc2)c1=O)NCCc1ccccc1`: 19.5 µM; `Cc1ccc(C(=O)Nc2nc3n(n2)C(c2ccccc2)CC(=O)N3)cc1` (stereo not drawn): 19.4 µM; `Cc1cccc(C(=O)Nc2ccccc2Sc2nc3c(c(=O)n(C)c(=O)n3C)n2C)c1`: 42.6 µM.
Next, `COc1ccc(-n2nnc3c(SCC(=O)Nc4cc(C)on4)ncnc32)cc1`: > 50 µM (inactive).
As for `N#Cc1ccc(NC(=O)COC(=O)c2ccc3ccccc3n2)cc1`, the IC50 is > 50 µM (inactive).
